For four cell lines, relative viability results are on record in the supplement of paper PMC10307832.

Assay in all cases: relative viability (nuclei count vs DMSO), 5 days (fraction); higher = more cells survive
Compound in assay [1]: CN(c1ncccc1CNc1nc(Nc2ccc3c(c2)CC(=O)N3)ncc1C(F)(F)F)S(C)(=O)=O + CC(=O)Nc1cccc(-n2c(=O)n(C3CC3)c(=O)c3c(Nc4ccc(I)cc4F)n(C)c(=O)c(C)c32)c1 [Trametinib] (partner 0.02 µM)
A digest of the protocol:
(§1)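 The day after seeding in 1536-well plates, lung cancer cell lines were treated by pin tool with a single drug, or with a fixed anchor-drug dose together with five library-drug doses (not always all listed) in √10 steps. After 5 days, a combined fix-and-stain solution (final 0.05% Triton X-100, 1% formaldehyde, 1 ug/ml Hoechst) was added. Nuclei counted on 4× images gave relative viability as treated counts over vehicle counts, reported as the median of duplicate plates.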

Compound in assay [2]: CN(c1ncccc1CNc1nc(Nc2ccc3c(c2)CC(=O)N3)ncc1C(F)(F)F)S(C)(=O)=O + COc1cccc2cc(-c3nc([C@H]4CC[C@H](C(=O)O)CC4)n4ncnc(N)c34)[nH]c12 [OSI-027] (partner 0.5 µM)
A digest of the protocol: as §1

Compound in assay [3]: CN(c1ncccc1CNc1nc(Nc2ccc3c(c2)CC(=O)N3)ncc1C(F)(F)F)S(C)(=O)=O + CS(=O)(=O)CCNCc1ccc(-c2ccc3ncnc(Nc4ccc(OCc5cccc(F)c5)c(Cl)c4)c3c2)o1 [Lapatinib] (partner 2 µM)
A digest of the protocol:
as §1

Compound in assay [4]: CN(c1ncccc1CNc1nc(Nc2ccc3c(c2)CC(=O)N3)ncc1C(F)(F)F)S(C)(=O)=O + C[C@]1(O)C[C@@H](c2nc(-c3ccc4ccc(-c5ccccc5)nc4c3)c3c(N)nccn32)C1 [Linsitinib] (partner 1 µM)
A digest of the protocol: as §1

On to NCI-H3122, for which the relative viability amounted to 0.244 in assay [1] (first compound 0.01 µM); 0.257 in assay [1] (first compound 0.03162 µM); 0.214 in assay [1] (first compound 0.1 µM); 0.22 in assay [1] (first compound 0.3162 µM); 0.201 in assay [1] (first compound 1 µM); 0.976 in assay [2] (first compound 0.01 µM). For the same cell line, the relative viability in assay [2] (first compound 0.03162 µM) stood at 1.07; in assay [2] (first compound 0.1 µM), 0.762; in assay [2] (first compound 0.3162 µM), 1.06; in assay [2] (first compound 1 µM), 0.954; in assay [3] (first compound 0.01 µM), 1.02; in assay [3] (first compound 0.03162 µM) it was 1.08. For the same cell line, the relative viability in assay [3] (first compound 0.1 µM) came to 1.01; in assay [3] (first compound 0.3162 µM) it was 0.956; in assay [3] (first compound 1 µM) it was 0.876; in assay [4] (first compound 0.01 µM) it was 1.02; in assay [4] (first compound 0.03162 µM), 1.06; in assay [4] (first compound 0.1 µM) it was 0.939. In addition, the relative viability is 0.966 in assay [4] (first compound 0.3162 µM) and 0.843 in assay [4] (first compound 1 µM).

Regarding PC-3 [JPC-3], the relative viability in assay [1] (first compound 0.01 µM) is 0.669; in assay [1] (first compound 0.1 µM), 0.712; in assay [1] (first compound 0.3162 µM), 0.696; in assay [1] (first compound 1 µM), 0.554; in assay [2] (first compound 0.01 µM), 0.722; in assay [2] (first compound 0.03162 µM), 0.742. For the same cell line, the relative viability was 0.739 in assay [2] (first compound 0.1 µM); 0.805 in assay [2] (first compound 0.3162 µM); 0.768 in assay [2] (first compound 1 µM); 0.441 in assay [3] (first compound 0.01 µM); 0.395 in assay [3] (first compound 0.03162 µM); 0.446 in assay [3] (first compound 0.1 µM). Also, the relative viability in assay [3] (first compound 0.3162 µM) was found to be 0.471; in assay [3] (first compound 1 µM) it was 0.432; in assay [4] (first compound 0.01 µM), 0.984; in assay [4] (first compound 0.03162 µM), 1.01; in assay [4] (first compound 0.1 µM), 0.938; in assay [4] (first compound 0.3162 µM), 0.925. Moreover, in assay [4] (first compound 1 µM), the relative viability was 0.835.

For the cell line PC-14, the relative viability was 0.82 in assay [1] (first compound 0.01 µM); 0.909 in assay [1] (first compound 0.03162 µM); 0.891 in assay [1] (first compound 0.1 µM); 0.726 in assay [1] (first compound 0.3162 µM); 0.619 in assay [1] (first compound 1 µM); 0.931 in assay [2] (first compound 0.01 µM). In addition, the relative viability in assay [2] (first compound 0.03162 µM) was found to be 1.05; in assay [2] (first compound 0.1 µM), 0.895; in assay [2] (first compound 0.3162 µM) it was 1.13; in assay [2] (first compound 1 µM), 0.809; in assay [3] (first compound 0.01 µM), 0.366; in assay [3] (first compound 0.03162 µM), 0.373. In addition, the relative viability in assay [3] (first compound 0.1 µM) was found to be 0.292; in assay [3] (first compound 0.3162 µM), 0.323; in assay [3] (first compound 1 µM) it was 0.33; in assay [4] (first compound 0.01 µM), 0.976; in assay [4] (first compound 0.03162 µM), 1; in assay [4] (first compound 0.1 µM), 1.06. Further, the relative viability in assay [4] (first compound 0.3162 µM) was determined as 0.961; in assay [4] (first compound 1 µM), 1.01.

For the cell line RERF-LC-KJ, the relative viability in assay [1] (first compound 0.01 µM) was 0.76; in assay [1] (first compound 0.03162 µM), 0.905; in assay [1] (first compound 0.1 µM), 0.949; in assay [1] (first compound 0.3162 µM), 0.904; in assay [1] (first compound 1 µM) it was 0.937; in assay [2] (first compound 0.01 µM), 0.632. Besides, the relative viability in assay [2] (first compound 0.03162 µM) was 0.585; in assay [2] (first compound 0.1 µM) it was 0.529; in assay [2] (first compound 0.3162 µM), 0.656; in assay [2] (first compound 1 µM), 0.573; in assay [3] (first compound 0.01 µM), 0.926; in assay [3] (first compound 0.03162 µM), 0.988. Besides, the relative viability in assay [3] (first compound 0.1 µM) was 0.854; in assay [3] (first compound 0.3162 µM), 0.886; in assay [3] (first compound 1 µM), 0.91; in assay [4] (first compound 0.01 µM), 0.838; in assay [4] (first compound 0.03162 µM) it was 0.964; in assay [4] (first compound 0.1 µM), 0.877. In addition, the relative viability is 0.83 in assay [4] (first compound 0.3162 µM) and 0.933 in assay [4] (first compound 1 µM).
